Values belong to the compound of their own block, whether it stands above or below them.
Columns and labels:
[1] = Antiproliferative activity against mouse Ba/F3 EGFR-Del19/T790M/C797S cells; format: functional, cell-based
[2] = Antiproliferative activity against mouse Ba/F3 EGFR cells; format: functional, cell-based
cells = details: Mus musculus, Ba/F3 EGFR-T790M/C797S/L858R
[3] = Antiproliferative activity against mouse Ba/F3 EGFR-Del19/T790M/C797S cells assessed as reduction in cell viability at 10 uM incubated for 72 hrs by MTT assay relative to control; format: functional
[4] = biological target: Epidermal growth factor receptor (Homo sapiens, UniProt P00533, C797S/EX19DEL/T790M); assay: Inhibition of EGFR Del19/T790M/C797S triple mutant (unknown origin)
[5] = biological target: T1, Epidermal growth factor receptor (Homo sapiens, UniProt P00533); assay: Inhibition of wild type EGFR (unknown origin)
T1 sequence (P00533 whole entry): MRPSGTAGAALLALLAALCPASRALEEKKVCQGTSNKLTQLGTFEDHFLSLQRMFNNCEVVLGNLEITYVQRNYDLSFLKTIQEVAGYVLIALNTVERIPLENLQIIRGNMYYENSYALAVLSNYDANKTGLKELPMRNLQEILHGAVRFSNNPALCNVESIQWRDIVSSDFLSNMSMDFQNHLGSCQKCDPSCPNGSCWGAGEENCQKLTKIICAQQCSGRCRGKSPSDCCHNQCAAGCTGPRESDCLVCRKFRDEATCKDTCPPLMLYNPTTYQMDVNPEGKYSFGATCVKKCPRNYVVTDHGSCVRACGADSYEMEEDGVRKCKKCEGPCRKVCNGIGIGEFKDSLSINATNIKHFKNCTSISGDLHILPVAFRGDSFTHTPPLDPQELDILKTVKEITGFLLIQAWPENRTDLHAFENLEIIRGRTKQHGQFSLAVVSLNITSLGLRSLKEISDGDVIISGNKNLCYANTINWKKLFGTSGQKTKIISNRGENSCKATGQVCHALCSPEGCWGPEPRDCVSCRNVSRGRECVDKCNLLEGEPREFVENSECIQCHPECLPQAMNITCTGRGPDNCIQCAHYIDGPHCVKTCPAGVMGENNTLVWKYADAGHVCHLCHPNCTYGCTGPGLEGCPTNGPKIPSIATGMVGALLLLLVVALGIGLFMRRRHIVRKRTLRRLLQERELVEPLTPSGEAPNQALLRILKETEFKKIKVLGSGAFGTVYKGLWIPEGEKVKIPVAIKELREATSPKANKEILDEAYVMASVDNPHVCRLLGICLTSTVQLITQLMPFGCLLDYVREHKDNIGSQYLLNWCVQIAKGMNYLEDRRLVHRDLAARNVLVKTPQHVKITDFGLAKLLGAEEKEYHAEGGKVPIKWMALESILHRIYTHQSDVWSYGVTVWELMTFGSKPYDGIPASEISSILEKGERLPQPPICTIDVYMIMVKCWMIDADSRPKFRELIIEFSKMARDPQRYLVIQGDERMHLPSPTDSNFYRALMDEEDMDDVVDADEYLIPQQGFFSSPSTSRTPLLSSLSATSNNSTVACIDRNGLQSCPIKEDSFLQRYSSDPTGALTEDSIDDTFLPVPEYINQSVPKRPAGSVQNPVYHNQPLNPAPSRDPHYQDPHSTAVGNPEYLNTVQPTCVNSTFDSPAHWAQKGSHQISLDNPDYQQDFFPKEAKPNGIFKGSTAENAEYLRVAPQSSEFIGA

[6] = biological target: T2, Epidermal growth factor receptor (Homo sapiens, UniProt P00533, C797S/L858R/T790M); assay: Inhibition of EGFR L858R/T790M/C797S triple mutant (unknown origin)
T2 sequence (P00533 25-1210 T790M/C797S/L858R limits assumed): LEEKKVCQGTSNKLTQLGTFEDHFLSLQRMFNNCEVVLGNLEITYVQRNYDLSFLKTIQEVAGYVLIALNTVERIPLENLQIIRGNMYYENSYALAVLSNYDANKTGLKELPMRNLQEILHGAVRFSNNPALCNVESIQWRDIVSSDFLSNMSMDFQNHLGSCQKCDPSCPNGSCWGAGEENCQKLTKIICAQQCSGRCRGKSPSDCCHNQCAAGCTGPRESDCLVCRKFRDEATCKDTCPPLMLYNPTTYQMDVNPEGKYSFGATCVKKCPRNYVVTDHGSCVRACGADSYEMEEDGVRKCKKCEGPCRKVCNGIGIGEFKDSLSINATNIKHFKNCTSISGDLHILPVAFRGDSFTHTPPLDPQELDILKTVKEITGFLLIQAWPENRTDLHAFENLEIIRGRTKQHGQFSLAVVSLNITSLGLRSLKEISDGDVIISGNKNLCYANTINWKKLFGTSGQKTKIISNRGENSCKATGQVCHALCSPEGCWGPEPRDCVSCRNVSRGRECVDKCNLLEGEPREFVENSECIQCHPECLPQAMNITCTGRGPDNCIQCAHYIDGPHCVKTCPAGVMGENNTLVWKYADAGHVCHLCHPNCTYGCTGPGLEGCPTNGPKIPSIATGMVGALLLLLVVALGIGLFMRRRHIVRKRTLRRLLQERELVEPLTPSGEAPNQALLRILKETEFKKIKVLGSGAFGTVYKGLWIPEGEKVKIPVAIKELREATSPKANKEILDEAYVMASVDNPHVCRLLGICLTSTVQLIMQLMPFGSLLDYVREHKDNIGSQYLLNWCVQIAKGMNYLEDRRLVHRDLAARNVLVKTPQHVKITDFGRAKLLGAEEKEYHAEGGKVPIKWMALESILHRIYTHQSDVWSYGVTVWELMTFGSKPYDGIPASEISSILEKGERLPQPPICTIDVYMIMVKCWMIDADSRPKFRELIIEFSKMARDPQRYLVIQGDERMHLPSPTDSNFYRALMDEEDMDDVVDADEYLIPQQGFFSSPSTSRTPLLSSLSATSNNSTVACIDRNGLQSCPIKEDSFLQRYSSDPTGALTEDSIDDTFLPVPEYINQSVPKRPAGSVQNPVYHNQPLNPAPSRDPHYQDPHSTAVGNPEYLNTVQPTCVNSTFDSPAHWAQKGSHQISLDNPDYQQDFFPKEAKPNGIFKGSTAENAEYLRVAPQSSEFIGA

[7] = Antiproliferative activity against human NCI-H1975 EGFR T790M/C797S/L858R cells; format: functional, cell-based
[8] = biological target: Epidermal growth factor receptor (Homo sapiens, UniProt P00533, L858R/T790M); assay: Inhibition of EGFR L858R/T790M double mutant (unknown origin)
Epidermal growth factor receptor (Homo sapiens, UniProt P00533, L858R/T790M), sequence (P00533 25-1210 T790M/L858R limits assumed): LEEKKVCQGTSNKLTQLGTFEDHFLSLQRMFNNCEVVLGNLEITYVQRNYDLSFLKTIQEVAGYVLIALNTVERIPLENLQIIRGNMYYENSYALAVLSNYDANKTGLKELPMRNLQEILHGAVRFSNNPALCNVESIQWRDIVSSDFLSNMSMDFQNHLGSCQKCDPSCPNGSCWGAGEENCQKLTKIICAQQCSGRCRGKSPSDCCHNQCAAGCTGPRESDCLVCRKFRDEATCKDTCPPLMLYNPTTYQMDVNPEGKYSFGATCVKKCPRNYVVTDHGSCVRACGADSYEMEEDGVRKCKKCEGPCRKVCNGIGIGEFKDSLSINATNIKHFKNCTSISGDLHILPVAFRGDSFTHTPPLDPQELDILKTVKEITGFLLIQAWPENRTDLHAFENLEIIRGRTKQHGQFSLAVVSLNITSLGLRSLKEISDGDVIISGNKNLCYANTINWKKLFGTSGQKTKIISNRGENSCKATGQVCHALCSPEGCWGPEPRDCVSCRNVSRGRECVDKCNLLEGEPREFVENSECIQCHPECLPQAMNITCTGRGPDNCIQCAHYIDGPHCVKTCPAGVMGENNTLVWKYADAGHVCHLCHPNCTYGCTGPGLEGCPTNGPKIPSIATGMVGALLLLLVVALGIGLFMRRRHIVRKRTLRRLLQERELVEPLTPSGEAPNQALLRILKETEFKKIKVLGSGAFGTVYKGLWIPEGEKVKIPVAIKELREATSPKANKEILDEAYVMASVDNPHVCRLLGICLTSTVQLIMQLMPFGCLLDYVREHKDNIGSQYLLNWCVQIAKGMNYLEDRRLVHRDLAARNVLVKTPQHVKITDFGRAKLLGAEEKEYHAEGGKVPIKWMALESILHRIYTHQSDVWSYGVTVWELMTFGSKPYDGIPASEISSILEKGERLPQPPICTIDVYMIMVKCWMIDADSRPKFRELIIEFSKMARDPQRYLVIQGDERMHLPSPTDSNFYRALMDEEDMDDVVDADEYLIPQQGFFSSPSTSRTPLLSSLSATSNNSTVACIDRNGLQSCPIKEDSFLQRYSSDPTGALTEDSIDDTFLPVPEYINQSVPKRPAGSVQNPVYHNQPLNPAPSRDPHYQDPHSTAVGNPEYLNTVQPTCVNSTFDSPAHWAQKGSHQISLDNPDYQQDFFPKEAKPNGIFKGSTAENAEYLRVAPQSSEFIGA

[9] = biological target: T2, Epidermal growth factor receptor; assay: Inhibition of EGFR L858R/T790M/C797S triple mutant (unknown origin) at 20 nM relative to control
A549 = assay: Antiproliferative activity against human A549 cells; format: functional, cell-based
[10] = Antiproliferative activity against mouse Ba/F3 EGFR-T790M/C797S/L858R cells assessed as reduction in cell growth incubated for 72 hrs by CCK-8 assay; format: functional, cell-based
NIH3T3 [11] = assay: Antiproliferative activity against mouse NIH3T3 cells harboring EGFR L858R/T790M/C797S assessed as reduction in cell growth measured for 4 to 7 days by CellTiter-Glo Luminescent assay; format: functional, cell-based
[12] = Antiproliferative activity against mouse Ba/F3 EGFR-Del19/T790M/C797S cells assessed as reduction in cell growth incubated for 72 hrs by CCK-8 assay; format: functional, cell-based
NIH3T3 [13] = assay: Antiproliferative activity against mouse NIH3T3 cells harboring EGFR del19/T790M/C797S assessed as reduction in cell growth measured for 4 to 7 days by CellTiter-Glo Luminescent assay; format: functional, cell-based
[14] = biological target: T1, Epidermal growth factor receptor; assay: Inhibition of wild type EGFR (unknown origin) by HTRF assay
[15] = system: Epidermal growth factor receptor (Homo sapiens), P00533 [L858R,T790M,C797S]; details: dose 1.0 nM
Epidermal growth factor receptor (Homo sapiens), P00533 [L858R,T790M,C797S], sequence (P00533 whole entry T790M/C797S/L858R): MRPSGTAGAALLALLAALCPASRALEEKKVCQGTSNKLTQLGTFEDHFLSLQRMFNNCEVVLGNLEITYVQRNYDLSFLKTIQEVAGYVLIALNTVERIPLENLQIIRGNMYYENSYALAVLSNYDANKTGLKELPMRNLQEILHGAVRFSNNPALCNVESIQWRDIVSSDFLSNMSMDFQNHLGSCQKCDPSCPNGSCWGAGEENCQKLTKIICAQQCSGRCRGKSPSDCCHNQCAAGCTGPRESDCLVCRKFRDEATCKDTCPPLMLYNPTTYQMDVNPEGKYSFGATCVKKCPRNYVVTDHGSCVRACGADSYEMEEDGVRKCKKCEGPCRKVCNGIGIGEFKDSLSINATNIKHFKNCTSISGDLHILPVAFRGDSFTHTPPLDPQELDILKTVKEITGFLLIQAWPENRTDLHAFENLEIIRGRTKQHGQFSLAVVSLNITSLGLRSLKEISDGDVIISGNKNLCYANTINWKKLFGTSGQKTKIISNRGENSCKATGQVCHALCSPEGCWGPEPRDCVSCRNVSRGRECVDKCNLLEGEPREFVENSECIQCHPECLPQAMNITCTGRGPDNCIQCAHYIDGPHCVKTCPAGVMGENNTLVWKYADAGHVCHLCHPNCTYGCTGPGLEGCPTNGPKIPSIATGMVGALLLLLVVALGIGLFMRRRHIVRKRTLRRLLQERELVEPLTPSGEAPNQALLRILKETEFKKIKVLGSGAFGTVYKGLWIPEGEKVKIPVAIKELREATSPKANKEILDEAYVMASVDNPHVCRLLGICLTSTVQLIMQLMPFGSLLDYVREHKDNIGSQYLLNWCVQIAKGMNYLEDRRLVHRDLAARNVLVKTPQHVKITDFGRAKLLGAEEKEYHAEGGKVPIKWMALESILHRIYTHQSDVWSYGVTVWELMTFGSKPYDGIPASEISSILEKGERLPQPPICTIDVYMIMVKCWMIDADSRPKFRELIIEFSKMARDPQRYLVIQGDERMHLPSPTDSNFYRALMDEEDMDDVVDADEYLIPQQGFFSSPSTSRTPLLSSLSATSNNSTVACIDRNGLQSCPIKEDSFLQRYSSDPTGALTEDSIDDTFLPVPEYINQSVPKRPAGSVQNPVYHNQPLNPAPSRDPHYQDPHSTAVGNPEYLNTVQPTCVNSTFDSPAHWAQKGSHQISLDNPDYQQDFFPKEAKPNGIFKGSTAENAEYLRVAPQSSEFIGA

[16] = system: Epidermal growth factor receptor (Homo sapiens), P00533 [L858R,T790M,C797S]; details: dose 0.05 nM
[17] = system: Epidermal growth factor receptor (Homo sapiens), P00533 [L858R,T790M,C797S]; details: dose 200.0 nM, tested as the 2H-labelled form

Compound: Oc1ccccc1-c1nc(NCC2CCOC2)c2ccccc2n1 (stereo not drawn)
Activity [3]: 91%

Compound: COc1cc(N2CCC(N3CCN(C)CC3)CC2)ccc1Nc1ncc(Cl)c(Nc2ccccc2NS(C)(=O)=O)n1
IC50 [4]: 5 nM
IC50 [5]: 184 nM
IC50 [6]: 8 nM

Compound: N#Cc1ccc(O)c(-c2nc(NCc3ncccn3)c3ccccc3n2)c1
IC50 [7]: 1200 nM

Compound: CCC(=O)N[C@H]1CC[C@@H](N2C(=O)N(c3ccccc3Cl)Cc3cnc(Nc4ccc(N5CCN(C)CC5)c(C)c4)nc32)CC1
IC50 [10]: 320 nM

Compound: C=CC(=O)Nc1cc(Nc2nccc(-c3cn(C)c4ccccc34)n2)c(OC)cc1N(C)CCN(C)C [OSIMERTINIB]
IC50 (NIH3T3 [11]): 2700 nM
IC50 [10]: 4140 nM
IC50 [1]: > 1000 nM
IC50 [2]: 171 nM
IC50 (cells): > 1000 nM
IC50 [12]: 3380 nM
IC50 (NIH3T3 [13]): 1200 nM

Compound: CN1CCN(c2ccc(Nc3ncc(Cl)c(Nc4ccccc4P(C)(C)=O)n3)cc2Br)CC1
IC50 [10]: 90 nM
IC50 [12]: 120 nM

Compound: CCC(=O)Nc1cccc(-c2c(-c3ccc(N4CCN(C)CC4)cc3)[nH]c3ncnc(OCC(C)C)c23)c1
IC50 [14]: 0.4 nM

Compound: COc1cc(N2CCC(N3CCN(C)CC3)CC2)ccc1Nc1ncc(Cl)c(Nc2ccccc2P(C)(C)=O)n1 [BRIGATINIB]
inhibition [15]: 57%
IC50 [1]: 139 nM
IC50 (cells): 15.6 nM
inhibition [16]: 4.82%

Compound: Cc1cc(Nc2ncc(Br)c(Nc3ccccc3NS(=O)(=O)C3CC3)n2)ccc1N1CCN(C)CC1
inhibition ([15]; tested as the 2H-labelled form): 86.9%
inhibition [17]: 99%
inhibition ([16]; tested as the 2H-labelled form): 59%

More lines, main results first:

IC50 (cells): 43.3 nM
Compound: CCc1cc(Nc2ncc(Cl)c(Nc3ccc(C)c(C)c3P(C)(C)=O)n2)c(OC)cc1N1CC2(CCN(C)CC2)C1
IC50 [1]: 128 nM
IC50 [2]: > 1000 nM

IC50 [5]: > 50 nM
Compound: N#Cc1ccc(O)c(-c2nc(NCc3cccnc3)c3ccccc3n2)c1

IC50 [6]: 0.083 nM
IC50 [8]: 0.063 nM
Compound: CN1CCC(c2ccc(-c3ccc4c(c3)C(=O)N(C(C(=O)Nc3nccs3)c3cc(F)ccc3O)C4)cc2)CC1 (stereo not drawn)

inhibition [9]: 97.2%
IC50 (cells): 16 nM
IC50 (A549): 957 nM
Compound: [2H]C([2H])([2H])c1cc(Nc2ncc(Br)c(Nc3ccccc3NS(=O)(=O)C3CC3)n2)ccc1N1CCN(C([2H])([2H])[2H])CC1
IC50 [1]: 12 nM

IC50 [5]: 16 nM
IC50 [6]: 88 nM
Compound: C=CC(=O)C1CCC[C@@H](n2nc(-c3ccc4ccccc4c3)c3c(N)ncnc32)C1 (stereo partly drawn)

IC50 [5]: 0.92 nM
Compound: CC(C)n1c2cc(Nc3ccnc(-c4cnn(S(=O)(=O)C5CC5)c4)n3)ncc2c2c(OCC(F)(F)F)cc(N3CCN(C)CC3)cc21
IC50 (NIH3T3 [11]): 45 nM
IC50 (NIH3T3 [13]): 20 nM

— ChEMBL document CHEMBL6109044, “From challenges to solutions: A review of fourth-generation EGFR tyrosine kinase inhibitors to overcome the C797S triple mutation in non-small cell lung cancer” (Eur J Med Chem, 2025)
